Measurements from paper PMC10412597, “Small molecule branched-chain ketoacid dehydrogenase kinase (BDK) inhibitors with opposing effects on BDK protein levels” (Nature Communications, 2023).

How the values were obtained:
Set-up in all cases: Invitrogen kinase panel, per cent inhibition of kinase activity
Settings in all cases: 10 µM, inhibitor
AURKA = target: T1, AURKA (Homo sapiens, UniProt O14965)
T1 sequence (O14965 1-403): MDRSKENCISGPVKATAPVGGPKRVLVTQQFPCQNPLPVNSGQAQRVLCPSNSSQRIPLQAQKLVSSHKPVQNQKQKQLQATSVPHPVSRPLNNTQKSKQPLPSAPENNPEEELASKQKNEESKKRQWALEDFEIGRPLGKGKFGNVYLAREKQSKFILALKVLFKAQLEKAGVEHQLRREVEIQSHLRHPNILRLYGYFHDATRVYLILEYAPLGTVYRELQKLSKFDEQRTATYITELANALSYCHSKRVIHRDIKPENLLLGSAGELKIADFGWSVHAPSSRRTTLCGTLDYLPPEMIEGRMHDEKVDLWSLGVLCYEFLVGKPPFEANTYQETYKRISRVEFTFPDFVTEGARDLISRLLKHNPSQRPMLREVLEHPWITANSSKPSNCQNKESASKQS
Protocol: (§1) To discover a potent and selective BDK inhibitor, a subset of the Pfizer compound collection was screened. […] Off target activity was assessed in both CEREP and kinase panels (Supplementary Tables 2, 3).

CAMK1 = CAMK1 (Homo sapiens, UniProt Q14012)
Protocol: as §1

CSK tyrosine Kinase = CSK tyrosine Kinase (Homo sapiens, UniProt P41240)
Protocol: as §1

FGFR1 = FGFR1 (Homo sapiens, UniProt P11362)
Protocol: as §1

HCK = HCK (Homo sapiens, UniProt P08631)
Protocol: as §1

JNK2 = target: T2, JNK2 (Homo sapiens, UniProt P45984)
T2 construct: gene MAPK9
Protocol: as §1

KDR = KDR (Homo sapiens, UniProt P35968)
Protocol: as §1

MARK1 = MARK1 (Homo sapiens, UniProt Q9P0L2)
Protocol: as §1

MST4 = target: T3, MST4 (Homo sapiens, UniProt Q9P289)
T3 construct: gene STK26
Protocol: as §1

[1] = target: T4, Mitogen-Activated Protein Kinase Kinase Kinase Kinase 4 (MAPK4K4) (Homo sapiens, UniProt O95819)
T4 construct: gene MAP4K4
Protocol: as §1

NUAK1 = NUAK1 (Homo sapiens, UniProt O60285)
Protocol: as §1

PAK4 = PAK4 (Homo sapiens, UniProt O96013)
Protocol: as §1

PIK3C3 = PIK3C3 (Homo sapiens, UniProt Q8NEB9)
Protocol: as §1

PIM2 = PIM2 (Homo sapiens, UniProt Q9P1W9)
Protocol: as §1

PRKCA = target: T5, PRKCA (Homo sapiens, UniProt P17252)
T5 construct: 1 mM ATP
Protocol: as §1

PRKDC = PRKDC (Homo sapiens, UniProt P78527)
Protocol: as §1

Rsk2 = target: T6, Rsk2 (Homo sapiens, UniProt P51812)
T6 construct: gene RPS6KA3
Protocol: as §1

SGK1 = target: T7, SGK1 (Homo sapiens, UniProt O00141)
T7 sequence (O00141 1-431): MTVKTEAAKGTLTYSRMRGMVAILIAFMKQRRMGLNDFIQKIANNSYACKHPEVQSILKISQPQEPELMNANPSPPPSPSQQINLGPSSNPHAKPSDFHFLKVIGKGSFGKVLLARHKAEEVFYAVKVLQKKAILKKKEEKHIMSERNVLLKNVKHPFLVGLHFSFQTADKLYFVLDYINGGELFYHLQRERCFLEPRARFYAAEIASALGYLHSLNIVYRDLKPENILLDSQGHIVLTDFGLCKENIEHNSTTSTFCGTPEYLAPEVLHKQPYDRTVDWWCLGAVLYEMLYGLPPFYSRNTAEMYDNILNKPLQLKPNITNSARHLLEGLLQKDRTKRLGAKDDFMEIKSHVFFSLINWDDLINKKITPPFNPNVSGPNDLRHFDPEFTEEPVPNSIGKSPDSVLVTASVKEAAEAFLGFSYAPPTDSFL
Protocol: as §1

SRPK1 = SRPK1 (Homo sapiens, UniProt Q96SB4)
Protocol: as §1

mTOR = mTOR (Homo sapiens, UniProt P42345)
Protocol: as §1

MARK1, sequence (Q9P0L2 whole entry): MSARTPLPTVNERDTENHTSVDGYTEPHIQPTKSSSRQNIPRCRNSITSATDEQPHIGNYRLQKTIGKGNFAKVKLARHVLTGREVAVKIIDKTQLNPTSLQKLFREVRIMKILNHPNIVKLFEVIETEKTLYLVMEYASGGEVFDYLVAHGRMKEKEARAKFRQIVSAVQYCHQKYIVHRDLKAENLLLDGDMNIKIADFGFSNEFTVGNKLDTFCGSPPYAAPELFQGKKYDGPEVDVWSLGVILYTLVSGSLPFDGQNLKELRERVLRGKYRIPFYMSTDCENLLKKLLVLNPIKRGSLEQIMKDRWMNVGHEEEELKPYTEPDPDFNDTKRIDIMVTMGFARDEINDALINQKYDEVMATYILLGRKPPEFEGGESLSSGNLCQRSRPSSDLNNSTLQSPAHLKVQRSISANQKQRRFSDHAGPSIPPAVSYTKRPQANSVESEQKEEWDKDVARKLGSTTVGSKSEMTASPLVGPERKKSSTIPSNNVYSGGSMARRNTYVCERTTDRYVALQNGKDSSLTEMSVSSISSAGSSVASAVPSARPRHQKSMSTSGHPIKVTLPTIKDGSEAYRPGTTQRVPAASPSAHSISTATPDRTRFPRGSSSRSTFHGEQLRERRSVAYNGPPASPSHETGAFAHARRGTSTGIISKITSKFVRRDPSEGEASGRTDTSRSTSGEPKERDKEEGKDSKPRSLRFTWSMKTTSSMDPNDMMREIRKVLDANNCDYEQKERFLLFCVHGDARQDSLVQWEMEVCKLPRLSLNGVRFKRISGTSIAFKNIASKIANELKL
FGFR1, sequence (P11362 whole entry): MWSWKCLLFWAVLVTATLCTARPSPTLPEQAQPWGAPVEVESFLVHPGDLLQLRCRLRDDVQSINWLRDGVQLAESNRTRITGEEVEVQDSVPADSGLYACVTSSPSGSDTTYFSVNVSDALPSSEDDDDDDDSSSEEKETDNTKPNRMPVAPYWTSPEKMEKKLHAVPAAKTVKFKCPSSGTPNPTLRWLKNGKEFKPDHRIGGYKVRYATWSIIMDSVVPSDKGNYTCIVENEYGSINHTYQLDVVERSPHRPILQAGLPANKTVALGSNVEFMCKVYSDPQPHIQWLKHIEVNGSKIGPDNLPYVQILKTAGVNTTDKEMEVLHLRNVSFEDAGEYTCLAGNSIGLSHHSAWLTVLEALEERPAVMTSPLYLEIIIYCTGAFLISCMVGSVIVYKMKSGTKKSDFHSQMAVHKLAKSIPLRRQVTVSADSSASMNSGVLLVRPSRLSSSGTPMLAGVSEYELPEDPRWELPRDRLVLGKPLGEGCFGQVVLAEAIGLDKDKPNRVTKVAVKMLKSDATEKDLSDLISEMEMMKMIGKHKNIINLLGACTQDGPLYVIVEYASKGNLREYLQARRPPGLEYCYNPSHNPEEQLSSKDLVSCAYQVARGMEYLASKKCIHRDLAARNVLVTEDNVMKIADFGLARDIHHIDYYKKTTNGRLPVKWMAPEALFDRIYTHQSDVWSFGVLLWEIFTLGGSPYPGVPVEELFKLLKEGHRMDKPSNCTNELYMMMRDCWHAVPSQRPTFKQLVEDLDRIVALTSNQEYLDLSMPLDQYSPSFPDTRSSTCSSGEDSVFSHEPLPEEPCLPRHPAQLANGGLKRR
T4 sequence (O95819 whole entry): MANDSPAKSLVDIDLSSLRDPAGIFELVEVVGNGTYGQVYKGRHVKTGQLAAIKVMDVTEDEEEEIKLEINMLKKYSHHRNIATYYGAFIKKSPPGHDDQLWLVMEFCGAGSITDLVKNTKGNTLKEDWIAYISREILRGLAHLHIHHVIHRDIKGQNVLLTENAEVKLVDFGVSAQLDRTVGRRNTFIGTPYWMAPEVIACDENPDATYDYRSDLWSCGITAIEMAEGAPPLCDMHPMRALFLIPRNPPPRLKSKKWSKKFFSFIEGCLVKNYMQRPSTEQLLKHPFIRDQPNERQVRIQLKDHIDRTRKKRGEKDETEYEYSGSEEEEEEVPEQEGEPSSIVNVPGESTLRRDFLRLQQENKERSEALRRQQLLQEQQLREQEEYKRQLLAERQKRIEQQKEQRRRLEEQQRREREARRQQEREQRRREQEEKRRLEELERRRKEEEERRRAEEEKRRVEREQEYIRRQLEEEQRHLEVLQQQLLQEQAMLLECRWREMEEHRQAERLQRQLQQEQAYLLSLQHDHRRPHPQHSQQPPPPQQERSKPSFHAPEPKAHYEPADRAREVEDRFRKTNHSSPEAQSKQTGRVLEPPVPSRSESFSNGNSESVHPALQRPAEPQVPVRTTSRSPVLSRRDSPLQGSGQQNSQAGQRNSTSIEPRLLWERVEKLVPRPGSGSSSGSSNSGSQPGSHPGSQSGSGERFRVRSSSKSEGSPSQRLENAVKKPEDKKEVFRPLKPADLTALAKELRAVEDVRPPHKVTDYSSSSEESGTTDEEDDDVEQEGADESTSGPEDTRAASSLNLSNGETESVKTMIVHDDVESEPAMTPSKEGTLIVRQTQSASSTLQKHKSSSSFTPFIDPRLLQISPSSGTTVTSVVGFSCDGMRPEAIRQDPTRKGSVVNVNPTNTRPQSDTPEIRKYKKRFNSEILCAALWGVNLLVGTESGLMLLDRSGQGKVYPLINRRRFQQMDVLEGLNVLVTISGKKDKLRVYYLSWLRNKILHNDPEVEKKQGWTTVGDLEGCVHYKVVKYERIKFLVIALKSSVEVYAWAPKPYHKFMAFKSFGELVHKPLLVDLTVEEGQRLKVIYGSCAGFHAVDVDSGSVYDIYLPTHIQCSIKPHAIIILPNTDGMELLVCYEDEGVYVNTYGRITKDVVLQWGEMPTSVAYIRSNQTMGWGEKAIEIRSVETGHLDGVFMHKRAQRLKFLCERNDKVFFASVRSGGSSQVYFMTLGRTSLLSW
PIM2, sequence (Q9P1W9 whole entry): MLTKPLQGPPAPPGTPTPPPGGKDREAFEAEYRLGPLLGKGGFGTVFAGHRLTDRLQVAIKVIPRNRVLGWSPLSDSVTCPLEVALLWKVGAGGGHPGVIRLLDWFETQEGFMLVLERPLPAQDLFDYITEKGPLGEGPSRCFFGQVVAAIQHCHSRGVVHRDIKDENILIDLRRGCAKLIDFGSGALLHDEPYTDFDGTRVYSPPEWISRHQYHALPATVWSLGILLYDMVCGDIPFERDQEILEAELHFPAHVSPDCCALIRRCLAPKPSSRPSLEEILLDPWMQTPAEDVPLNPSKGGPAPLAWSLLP
PAK4, sequence (O96013 whole entry): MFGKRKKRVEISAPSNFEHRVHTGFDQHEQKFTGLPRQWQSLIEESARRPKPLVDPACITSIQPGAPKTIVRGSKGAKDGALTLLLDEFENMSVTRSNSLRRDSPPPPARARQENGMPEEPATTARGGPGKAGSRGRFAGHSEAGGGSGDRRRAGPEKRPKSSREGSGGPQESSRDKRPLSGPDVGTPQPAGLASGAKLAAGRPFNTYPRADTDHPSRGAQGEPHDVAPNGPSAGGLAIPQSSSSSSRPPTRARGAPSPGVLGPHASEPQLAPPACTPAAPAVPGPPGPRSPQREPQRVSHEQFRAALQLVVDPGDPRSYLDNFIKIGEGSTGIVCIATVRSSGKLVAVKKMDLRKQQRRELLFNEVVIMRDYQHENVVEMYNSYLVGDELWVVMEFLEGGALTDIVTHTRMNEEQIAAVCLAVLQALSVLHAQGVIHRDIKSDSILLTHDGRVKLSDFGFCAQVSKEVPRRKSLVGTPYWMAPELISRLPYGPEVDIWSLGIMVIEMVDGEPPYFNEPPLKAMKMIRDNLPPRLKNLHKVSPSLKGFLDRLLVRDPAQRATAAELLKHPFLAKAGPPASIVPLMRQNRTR
T3 sequence (Q9P289 whole entry): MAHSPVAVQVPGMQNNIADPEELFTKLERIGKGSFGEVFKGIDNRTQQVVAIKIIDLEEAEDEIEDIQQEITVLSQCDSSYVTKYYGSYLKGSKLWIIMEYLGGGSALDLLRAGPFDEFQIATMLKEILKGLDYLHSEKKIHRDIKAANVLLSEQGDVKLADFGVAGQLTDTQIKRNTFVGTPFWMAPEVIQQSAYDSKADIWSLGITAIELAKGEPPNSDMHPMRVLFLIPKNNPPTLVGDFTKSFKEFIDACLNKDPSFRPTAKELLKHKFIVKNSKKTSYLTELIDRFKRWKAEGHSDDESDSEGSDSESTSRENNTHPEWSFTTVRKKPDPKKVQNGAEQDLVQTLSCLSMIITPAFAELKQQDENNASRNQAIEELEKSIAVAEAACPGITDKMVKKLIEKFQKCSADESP
PIK3C3, sequence (Q8NEB9 whole entry): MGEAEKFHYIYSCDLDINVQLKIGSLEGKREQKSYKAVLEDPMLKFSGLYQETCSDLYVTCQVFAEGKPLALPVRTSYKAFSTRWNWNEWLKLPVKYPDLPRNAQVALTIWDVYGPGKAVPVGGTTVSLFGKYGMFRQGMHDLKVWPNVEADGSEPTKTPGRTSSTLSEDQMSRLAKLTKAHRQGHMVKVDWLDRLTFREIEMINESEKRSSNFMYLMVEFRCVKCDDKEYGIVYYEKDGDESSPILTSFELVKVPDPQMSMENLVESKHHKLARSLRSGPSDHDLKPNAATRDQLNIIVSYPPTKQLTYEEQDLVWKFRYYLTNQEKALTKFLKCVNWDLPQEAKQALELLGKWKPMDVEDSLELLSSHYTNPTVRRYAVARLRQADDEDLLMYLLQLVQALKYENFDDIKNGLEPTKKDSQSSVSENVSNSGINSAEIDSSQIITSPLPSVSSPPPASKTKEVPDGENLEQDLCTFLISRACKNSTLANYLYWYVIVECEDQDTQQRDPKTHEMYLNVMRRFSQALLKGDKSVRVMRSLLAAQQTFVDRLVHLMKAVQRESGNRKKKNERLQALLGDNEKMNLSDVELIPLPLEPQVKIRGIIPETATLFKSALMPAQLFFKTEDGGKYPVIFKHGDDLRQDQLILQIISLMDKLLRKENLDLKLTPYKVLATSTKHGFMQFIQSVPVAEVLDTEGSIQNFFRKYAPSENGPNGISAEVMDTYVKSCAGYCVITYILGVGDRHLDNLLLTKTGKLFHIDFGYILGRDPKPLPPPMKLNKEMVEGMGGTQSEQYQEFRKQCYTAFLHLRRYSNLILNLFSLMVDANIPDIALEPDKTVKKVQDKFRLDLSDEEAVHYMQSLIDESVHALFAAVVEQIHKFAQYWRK

In the case of `O=C(O)c1sc2cc(F)sc2c1Cl` [PF-07208254, 3-chloro-5-fluorothieno[3,2-b]thiophene-2-carboxylic acid], the “ATP = 1 mM % Inhibition PF-07208254” value (AURKA) is reported as -2.6%, the “ATP = Km % Inhibition PF-07208254” value (AURKA) is reported as 9.4% and the “ATP = 100 uM % Inhibition PF-07208254” value (CAMK1) is reported as -7.9%. The “ATP = Km % Inhibition PF-07208254” value (CSK tyrosine Kinase) was 2.9%, the “ATP = 1 mM % Inhibition PF-07208254” value (FGFR1) was -0.5% and the “ATP = Km % Inhibition PF-07208254” value (FGFR1) was -0.5%. For the same compound, the “ATP = Km % Inhibition PF-07208254” value (HCK) was 9.9%, the “ATP = 100 uM % Inhibition PF-07208254” value (JNK2) was -3.0% and the “ATP = 1 mM % Inhibition PF-07208254” value (KDR) was 5.6%. The “ATP = Km % Inhibition PF-07208254” value (KDR) was 1.1%, the “ATP = 1 mM % Inhibition PF-07208254” value (MARK1) was 8.4% and the “ATP = Km % Inhibition PF-07208254” value (MARK1) was 2.1%. The “ATP = 1 mM % Inhibition PF-07208254” value (MST4) was 3.7%, the “ATP = Km % Inhibition PF-07208254” value (MST4) was 16.7% and the “ATP = 1 mM % Inhibition PF-07208254” value [1] was -7.5%. For the same compound, the “ATP = Km % Inhibition PF-07208254” value [1] was 11.9%, the “ATP = Km % Inhibition PF-07208254” value (NUAK1) was 10.3% and the “ATP = 1 mM % Inhibition PF-07208254” value (PAK4) was 0.9%. For the same compound, the “ATP = Km % Inhibition PF-07208254” value (PAK4) was 6.0%, the “ATP = Km % Inhibition PF-07208254” value (PIK3C3) was 7.3% and the “ATP = 1 mM % Inhibition PF-07208254” value (PIM2) was -5.2%. For the same compound, the “ATP = Km % Inhibition PF-07208254” value (PIM2) was 22.3%, the “ATP = Km % Inhibition PF-07208254” value (PRKCA) was 3.8% and the “ATP = Km % Inhibition PF-07208254” value (PRKDC) was 8.3%. The “ATP = Km % Inhibition PF-07208254” value (Rsk2) was -0.7%, the “ATP = 1 mM % Inhibition PF-07208254” value (SGK1) was 1.9% and the “ATP = Km % Inhibition PF-07208254” value (SGK1) was -0.1%. The “ATP = Km % Inhibition PF-07208254” value (SRPK1) was 2.8% and the “ATP = Km % Inhibition PF-07208254” value (mTOR) was 5.1%.
In the case of `CCC1(COc2ccc(-c3csc(-c4ccccc4C(=O)O)n3)cn2)CC1` [PF-07247685, 2-(4-{6-[(1-ethylcyclopropyl)methoxy]pyridin-3-yl}-1,3-thiazol-2-yl)benzoic acid], the “ATP = 1 mM % Inhibition PF-07247685” value (AURKA) is reported as 2.2%, the “ATP = Km % Inhibition PF-07247685” value (AURKA) is reported as 8.9% and the “ATP = 100 uM % Inhibition PF-07247685” value (CAMK1) is reported as -5.1%. For the same compound, the “ATP = Km % Inhibition PF-07247685” value (CSK tyrosine Kinase) was 4.3%, the “ATP = 1 mM % Inhibition PF-07247685” value (FGFR1) was 2.1% and the “ATP = Km % Inhibition PF-07247685” value (FGFR1) was 8.8%. For the same compound, the “ATP = Km % Inhibition PF-07247685” value (HCK) was 4.5%, the “ATP = 100 uM % Inhibition PF-07247685” value (JNK2) was 4.3% and the “ATP = 1 mM % Inhibition PF-07247685” value (KDR) was 0.1%. The “ATP = Km % Inhibition PF-07247685” value (KDR) was 2.0%, the “ATP = 1 mM % Inhibition PF-07247685” value (MARK1) was 7.5% and the “ATP = Km % Inhibition PF-07247685” value (MARK1) was 4.3%. The “ATP = 1 mM % Inhibition PF-07247685” value (MST4) was -2.9%, the “ATP = Km % Inhibition PF-07247685” value (MST4) was 2.9% and the “ATP = 1 mM % Inhibition PF-07247685” value [1] was 3.2%. For the same compound, the “ATP = Km % Inhibition PF-07247685” value [1] was 25.5%, the “ATP = Km % Inhibition PF-07247685” value (NUAK1) was -18.2% and the “ATP = 1 mM % Inhibition PF-07247685” value (PAK4) was 3.7%. The “ATP = Km % Inhibition PF-07247685” value (PAK4) was 8.3%, the “ATP = Km % Inhibition PF-07247685” value (PIK3C3) was 3.0% and the “ATP = 1 mM % Inhibition PF-07247685” value (PIM2) was 0.9%. For the same compound, the “ATP = Km % Inhibition PF-07247685” value (PIM2) was 0.1%, the “ATP = Km % Inhibition PF-07247685” value (PRKCA) was 14.8% and the “ATP = Km % Inhibition PF-07247685” value (PRKDC) was 5.4%. For the same compound, the “ATP = Km % Inhibition PF-07247685” value (Rsk2) was -1.6%, the “ATP = 1 mM % Inhibition PF-07247685” value (SGK1) was -5.1% and the “ATP = Km % Inhibition PF-07247685” value (SGK1) was 0.7%. The “ATP = Km % Inhibition PF-07247685” value (SRPK1) was 12.6% and the “ATP = Km % Inhibition PF-07247685” value (mTOR) was 0.4%.
